Molecules are shown by their SMILES.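 Growth conditions: 96-well plates. Treatment: test compound, 48 hours, 5 concentrations. Analysis: linear interpolation between bracketing concentrations; unreached endpoints set to highest concentration. The concentration for full growth arrest is given as TGI.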

Holding throughout (assay): growth of human tumour cells (NCI), 48 h
In experiment [1] the test system is A549 NSCLC.
Experiment [2] has as its system ACHN renal.
Experiment [3] relates to HCT-116 colon.
For experiment [4], the system named is HOP-62 NSCLC.
Experiment [5] deals with HT29 colon.
The subject of experiment [6] is K-562 leukemia.
The subject of experiment [7] is LOX IMVI melanoma.
Experiment [8] relates to MDA-N.
The test system of experiment [9] is NCI-H522 lung.
In experiment [10] the test system is SF-295 CNS.
Experiment [11] has as its system SK-OV-3 ovarian.
Experiment [12] relates to T-47D breast.
The subject of experiment [13] is U251 CNS.
For experiment [14], the system named is UACC-62 melanoma.
Experiment [15] has as its system UO-31 renal.

Turning to `O=C(O)CNC(=O)CO/N=C1/C(c2c(O)[nH]c3ccccc23)=Nc2ccccc21`, the TGI in experiment [1] was over 100 µM; in experiment [2], over 100 µM; in experiment [3] it was over 100 µM; in [4], 87.3 µM; in [5], over 100 µM; in experiment [6] it was over 100 µM. The TGI in experiment [7], in experiment [8], in [9], in experiment [10], in experiment [11] and in experiment [12] was over 100 µM in each case. Moreover, the TGI in experiment [13], in experiment [14] and in [15] was over 100 µM throughout.

These data come from PubChem BioAssay (NCI).
